Measurements published in patent publication US20180243298A1, “TRPV3 MODULATORS” (AbbVie Inc., priority 2015, published 2018).

Experiments:
[1] = test system: TRPV3; details: TRPV3 activation, relatively weak and nonspecific across TRPs; cited from earlier work
[2] = molecular target: T1, human TRPV3 (Homo sapiens, UniProt Q8NET8); experiment: Calcium flux assay (FLIPR TETRA), recombinant HEK293 cells expressing TRPV3, 2-APB response; assay type: cell-based; details: 2-APB at its EC80
T1 construct: expressed in transfected cells; host or cells: HEK293
T1 sequence (Q8NET8 1-790): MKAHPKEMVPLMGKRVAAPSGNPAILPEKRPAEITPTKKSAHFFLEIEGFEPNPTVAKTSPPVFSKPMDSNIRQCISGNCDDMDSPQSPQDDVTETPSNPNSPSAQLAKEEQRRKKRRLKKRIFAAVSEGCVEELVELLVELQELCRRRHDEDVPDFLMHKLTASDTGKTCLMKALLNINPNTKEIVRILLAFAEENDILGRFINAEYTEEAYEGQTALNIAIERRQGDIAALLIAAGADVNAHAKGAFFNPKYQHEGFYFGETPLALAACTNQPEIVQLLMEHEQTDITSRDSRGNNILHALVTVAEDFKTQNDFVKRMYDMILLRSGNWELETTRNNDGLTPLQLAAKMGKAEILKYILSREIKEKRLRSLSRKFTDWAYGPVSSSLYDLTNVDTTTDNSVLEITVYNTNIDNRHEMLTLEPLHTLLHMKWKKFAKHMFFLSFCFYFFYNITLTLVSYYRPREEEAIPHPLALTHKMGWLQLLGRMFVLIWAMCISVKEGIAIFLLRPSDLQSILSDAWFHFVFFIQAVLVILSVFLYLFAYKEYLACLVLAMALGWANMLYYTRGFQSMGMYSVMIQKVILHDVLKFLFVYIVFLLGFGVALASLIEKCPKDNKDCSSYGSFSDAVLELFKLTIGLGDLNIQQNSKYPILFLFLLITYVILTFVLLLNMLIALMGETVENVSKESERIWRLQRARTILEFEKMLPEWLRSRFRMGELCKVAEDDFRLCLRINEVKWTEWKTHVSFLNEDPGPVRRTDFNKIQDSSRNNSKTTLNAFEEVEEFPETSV
Outline: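 Response is the peak fluorescence increase over baseline, as a percentage of the compound-free response to 2-APB at EC80. Calcium flux recorded on FLIPR TETRA in stable human or mouse TRPV3 HEK293 cells after 90–120 min Calcium-4 dye loading.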

[3] = test system: FITC-challenged mice; experiment: Contact hypersensitivity (CHS) to FITC, ear swelling in mice; assay type: in vivo, mice (BALB/c); details: reduction in ear skin thickness vs vehicle, 24 hours after FITC challenge
Procedure: (ii) In vivo Data The following protocol was used to evaluate the efficacy of a compound against contact hypersensitivity:
Young adult female BALB/c mice (18±2 g body weight at 6-8 weeks old) Charles River Laboratories) were maintained under pathogen-free conditions and housed in an animal room maintained t at temperature of 21±1° C. and a humidity of 43±5%. Induction of contact hypersensitivity (CHS) and ear thickness measurements for all animals were carried out under light anesthesia (3-5% isoflurane/oxygen) for 1-2 minutes.
Contact hypersensitivity consists of the afferent or initiation sensitizing phase, and the efferent or elicitation phase. The latter phase occurs when epidermal cells encounter a particular antigen to which the epidermal cells have previously been exposed, and is characterized in rodents by localized swelling in the skin.
Fluorescein isothiocyanate (FITC) was purchased from Sigma-Aldrich and dissolved in 1:1 in acetone/dibutylphthalate prior to epicutaneous application. Mice were sensitized by painting epicutaneously 40 uL of 0.5% FITC on the abdomen ventral skin shaved one day prior to sensitization. Six days later, mice were challenged by painting epicutaneously 20 uL total volume of 0.5% FITC on the right ear (10 uL on either side). Control mice were treated with vehicle only. Ear swelling was measured 24 hours after challenge. Treatment groups were dosed orally at a dose volume of 10 mL/kg with compounds either BID (1 hour prior to FITC challenge, 8 hours after first dose and 2 hours prior to ear swelling measurement at 24 hours post FITC challenge) or QD (1 hour prior to FITC challenge and 2 hours prior to ear swelling measurement at 24 hours post FITC challenge). Inflammation was determined by the degree of ear swelling of the hapten exposed ear compared with the untreated ear with a Quick Mini thickness-gauge caliber (Mitutoyo, Japan). The change in ear thickness after allergen treatment can be used to calculate the percent suppression of contact hypersensitivity.
The level of compound-mediated suppression of ear skin thickness in FITC-challenged mice is indicated in Table 2 wherein “A” refers to a reduction in ear skin thickness of >50%, “B” refers to a reduction in ear skin thickness of 30-50% and “C” refers to a reduction in ear skin thickness of <30% relative to vehicle-treated animals.

[4] = Mus musculus, 30 mg/kg bid po, read-out: FITC % effect

IC50 [2] [nM]	Compound	EC50 [1] [nM]	inhibition in vivo at 100 mg/kg ([3]; Mus musculus, 100 mg/kg bid po, read-out: FITC % effect) [%]	inhibition in vivo at 30 mg/kg [3, 4] [%]	FITC % effect ([3]; 30 mg/kg bid po)
–	c1ccc(B(OB(c2ccccc2)c2ccccc2)c2ccccc2)cc1 [DPBA, diphenylboronic anhydride]	~40000	–	–	–
–	NCCOB(c1ccccc1)c1ccccc1 [Example 2-APB, 2-aminoethoxydiphenylborate]	~40000	–	–	–
50 to 100	COc1ncnc(OC)c1C(=O)Nc1nc(C(F)(F)F)c(-c2ccnc(C#N)c2)s1 [Example 66, N-[5-(2-cyanopyridin-4-yl)-4-(trifluoromethyl)-1,3-thiazol-2-yl]-4,6-dimethoxypyrimidine-5-carboxamide]	–	> 50	–	–
< 50	COc1ncnc(OC)c1C(=O)Nc1nc(C(F)(F)F)c(-c2cnoc2)s1 [Example 169, 4,6-dimethoxy-N-[5-(1,2-oxazol-4-yl)-4-(trifluoromethyl)-1,3-thiazol-2-yl]pyrimidine-5-carboxamide]	–	–	< 30	–
< 50	COc1ncnc(OC)c1C(=O)Nc1nc(C(F)(F)F)c(-c2cncc(C(F)(F)F)c2)s1 [Example 196, 4,6-dimethoxy-N-{4-(trifluoromethyl)-5-[5-(trifluoromethyl)pyridin-3-yl]-1,3-thiazol-2-yl}pyrimidine-5-carboxamide]	–	–	< 30	–
< 50	COc1ncnc(OC)c1C(=O)Nc1nc(C(F)(F)F)c(-c2ccc3nonc3c2)s1 [Example 199, N-[5-(2,1,3-benzoxadiazol-5-yl)-4-(trifluoromethyl)-1,3-thiazol-2-yl]-4,6-dimethoxypyrimidine-5-carboxamide]	–	–	30 to 50	–
< 50	COc1ncnc(OC)c1C(=O)Nc1nc(C(F)(F)F)c(-c2cnc(C(F)(F)F)nc2)s1 [Example 202, 4,6-dimethoxy-N-{4-(trifluoromethyl)-5-[2-(trifluoromethyl)pyrimidin-5-yl]-1,3-thiazol-2-yl}pyrimidine-5-carboxamide]	–	–	< 30	–

Compound	IC50 [2] [nM]	EC50 [1] [nM]	inhibition in vivo at 100 mg/kg ([3]; Mus musculus, 100 mg/kg bid po, read-out: FITC % effect) [%]	inhibition in vivo at 30 mg/kg [3, 4] [%]	FITC % effect ([3]; 30 mg/kg bid po)
N-[5-(4-cyanophenyl)-4-(trifluoromethyl)-1,3-thiazol-2-yl]-4,6-dimethoxypyrimidine-5-carboxamide [Example 41]	< 50	–	–	–	C (a reduction in ear skin thickness of <30% relative to vehicle-treated animals)
